Laboratory results as given in patent US9273057B2 (Bristol-Myers Squibb Company, priority 2012, dated 2016).

Molecular target: CK2A1 (CK2α/β) (Homo sapiens, UniProt P68400)
Test: CK2 kinase assay, CK2A1 (CK2α/β)
Format: biochemical
Conditions: Table A; read-out: CK2A1 (CK2α/β) (IC50)

Sequence of CK2A1 (CK2α/β) (P68400 whole entry, species assumed): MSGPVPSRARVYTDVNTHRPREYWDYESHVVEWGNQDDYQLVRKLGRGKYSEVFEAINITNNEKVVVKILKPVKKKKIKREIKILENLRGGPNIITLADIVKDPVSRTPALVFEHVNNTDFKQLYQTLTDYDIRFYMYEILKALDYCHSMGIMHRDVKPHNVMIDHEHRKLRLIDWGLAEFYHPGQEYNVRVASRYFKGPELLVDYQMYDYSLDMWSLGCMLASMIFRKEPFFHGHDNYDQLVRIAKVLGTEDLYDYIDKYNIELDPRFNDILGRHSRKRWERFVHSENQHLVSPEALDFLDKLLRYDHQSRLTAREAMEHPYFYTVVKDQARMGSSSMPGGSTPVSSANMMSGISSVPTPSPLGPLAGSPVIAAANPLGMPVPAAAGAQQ
Sequence of CK2A1 (CK2α/β) (P67870 whole entry partner, species assumed): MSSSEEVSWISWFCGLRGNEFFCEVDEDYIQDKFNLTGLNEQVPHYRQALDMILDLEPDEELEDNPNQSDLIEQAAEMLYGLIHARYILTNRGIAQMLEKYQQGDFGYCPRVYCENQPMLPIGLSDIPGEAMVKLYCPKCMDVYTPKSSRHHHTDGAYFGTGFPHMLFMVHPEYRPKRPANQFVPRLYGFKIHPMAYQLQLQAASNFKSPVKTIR

IC50 [nM] | Compound
2.12 | CC(C)(CO)N1CCC(c2cc(C#N)cc(Nc3nc(NC4CC4)c4ncc(C#N)n4n3)c2Cl)CC1 [Example 643, 2-((2-chloro-5-cyano-3-(1-(1-hydroxy-2-methylpropan-2-yl)piperidin-4-yl)phenyl)amino)-4-(cyclopropylamino)imidazo[2,1-f][1,2,4]triazine-7-carbonitrile]
0.65 | N#Cc1cc(Nc2nc(NC3CC3)c3ncc(C#N)n3n2)c(Cl)c(C2CCN(CC(O)CF)CC2)c1 (racemic) [Example 380, (+/−)-2-((2-chloro-5-cyano-3-(1-(3-fluoro-2-hydroxypropyl)-4-piperidinyl)phenyl)amino)-4-(cyclopropylamino)imidazo[2,1-f][1,2,4]triazine-7-carbonitrile]
1.69 | N#Cc1cc(Nc2nc(NC3CC3)c3ncc(C#N)n3n2)c(Cl)c(N2CCC3(CC2)CN(CC(O)CF)C3)c1 (racemic) [Example 796, (+/−)-2-((2-chloro-5-cyano-3-(2-(3-fluoro-2-hydroxypropyl)-2,7-diazaspiro[3.5]nonan-7-yl)phenyl)amino)-4-(cyclopropylamino)imidazo[2,1-f][1,2,4]triazine-7-carbonitrile]
0.58 | CC1(C(=O)N2CCC(c3cc(C#N)cc(Nc4nc(NC5CC5)c5ncc(C#N)n5n4)c3Cl)CC2)COC1 [Example 233, 2-((2-chloro-5-cyano-3-(1-((3-methyl-3-oxetanyl)carbonyl)-4-piperidinyl)phenyl)amino)-4-(cyclopropylamino)imidazo[2,1-f][1,2,4]triazine-7-carbonitrile]
3.97 | CCNc1nc(Nc2cc(C#N)cc(N3C[C@@H](C)[C@@H](NC(=O)OC)C3)c2Cl)nn2c(C#N)cnc12 [Example 335, methyl ((3R,4R)-1-(2-chloro-5-cyano-3-((7-cyano-4-(ethylamino)imidazo[2,1-f][1,2,4]triazin-2-yl)amino)phenyl)-4-methyl-3-pyrrolidinyl)carbamate]
2.46 | CNC(=O)CN1CC2(CCN(c3cc(C#N)cc(Nc4nc(NC5CC5)c5ncc(C#N)n5n4)c3Cl)CC2)C1 [Example 799, 2-(7-(2-chloro-5-cyano-3-((7-cyano-4-(cyclopropylamino)imidazo[2,1-f][1,2,4]triazin-2-yl)amino)phenyl)-2,7-diazaspiro[3.5]nonan-2-yl)-N-methylacetamide]
0.98 | CC(CCN1CC(O)C1)c1cc(C#N)cc(Nc2nc(NC3CC3)c3ncc(C#N)n3n2)c1Cl (stereo not drawn) [Example 575, 2-((2-chloro-5-cyano-3-(4-(3-hydroxyazetidin-1-yl)butan-2-yl)phenyl)amino)-4-(cyclopropylamino)imidazo[2,1-f][1,2,4]triazine-7-carbonitrile]
2.97 | CC1(CN2CCN(c3cc(C(F)F)cc(Nc4nc(NC5CC5)c5ncc(C#N)n5n4)c3Cl)CC2)COC1 [Example 264, 2-((2-chloro-5-(difluoromethyl)-3-(4-((3-methyl-3-oxetanyl)methyl)-1-piperazinyl)phenyl)amino)-4-(cyclopropylamino)imidazo[2,1-f][1,2,4]triazine-7-carbonitrile]
2.69 | COC(=O)N1CC(N2CCN(c3cc(C#N)cc(Nc4nc(NC5CC5)c5ncc(C#N)n5n4)c3Cl)CC2)C1 [Example 53, methyl 3-(4-(2-chloro-5-cyano-3-((7-cyano-4-(cyclopropylamino)imidazo[2,1-f][1,2,4]triazin-2-yl)amino)phenyl)-1-piperazinyl)-1-azetidinecarboxylate]
0.2 | N#Cc1cc(Nc2nc(NC3CC3)c3ncc(C#N)n3n2)c(Cl)c(N2CCOC(CO)C2)c1 (racemic) [Example 697, (+/−)-2-((2-chloro-5-cyano-3-(2-(hydroxymethyl)morpholino)phenyl)amino)-4-(cyclopropylamino)imidazo[2,1-f][1,2,4]triazine-7-carbonitrile]
4.9 | N#Cc1cc(Nc2nc(NC3CC3)c3ncc(C#N)n3n2)c(Cl)c(N2CCC3CCN(C4COC4)C3C2)c1 (racemic) [Example 457, (+/−)-2-((2-chloro-5-cyano-3-(1-(oxetan-3-yl)hexahydro-1H-pyrrolo[2,3-c]pyridin-6(2H)-yl)phenyl)amino)-4-(cyclopropylamino)imidazo[2,1-f][1,2,4]triazine-7-carbonitrile]
0.52 | CCNc1nc(Nc2cc(C#N)cc(C3CCN(C(C)=O)CC3)c2Cl)nn2c(C#N)cnc12 [Example 354, 2-((3-(1-acetyl-4-piperidinyl)-2-chloro-5-cyanophenyl)amino)-4-(ethylamino)imidazo[2,1-f] [1,2,4]triazine-7-carbonitrile]
2.68 | CN(CC1CN(c2cc(C#N)cc(Nc3nc(NC4CC4)c4ncc(C#N)n4n3)c2Cl)CCO1)CC(C)(C)O (stereo not drawn) [Example 701, 2-{[2-chloro-5-cyano-3-(2-{[(2-hydroxy-2-methylpropyl)(methyl)amino]methyl}morpholin-4-yl)phenyl]amino}-4-(cyclopropylamino)imidazo[2,1-f][1,2,4]triazine-7-carbonitrile]
0.57 | CC(=O)N1CCN(c2cc(C#N)cc(Nc3nc(NC4CC4)c4ncc(C#N)n4n3)c2Cl)CC1 [Example 85, 2-((3-(4-acetyl-1-piperazinyl)-2-chloro-5-cyanophenyl)amino)-4-(cyclopropylamino) imidazo[2,1-fl][1,2,4] triazine-7-carbonitrile]
3.39 | CCNc1nc(Nc2cc(C(N)=O)cc(N3CC[C@H](NC(=O)OC)[C@@H](O)C3)c2Cl)nn2c(C#N)cnc12 (racemic) [Example 389, (+/−)-methyl ((3R,4R)-1-(5-carbamoyl-2-chloro-3-((7-cyano-4-(ethylamino)imidazo[2,1-f][1,2,4]triazin-2-yl)amino)phenyl)-3-hydroxypiperidin-4-yl)carbamate]
2.4 | N#Cc1cc(Nc2nc(NC3CC3)c3ncc(C#N)n3n2)c(Cl)c(C(O)CN2CCC(O)CC2)c1 (stereo not drawn) [Example 688, 2-((2-chloro-5-cyano-3-(1-hydroxy-2-(4-hydroxypiperidin-1-yl)ethyl)phenyl)amino)-4-(cyclopropylamino)imidazo[2,1-f][1,2,4]triazine-7-carbonitrile]
1.17 | N#Cc1cc(Nc2nc(NC3CC3)c3ncc(C#N)n3n2)c(Cl)c(N2CCC(N3CC(F)(F)C3)CC2)c1 [Example 147, 2-((2-chloro-5-cyano-3-(4-(3,3-difluoro-1-azetidinyl)-1-piperidinyl)phenyl)amino)-4-(cyclopropylamino)imidazo [2,1-f][1,2,4]triazine-7-carbonitrile]
3.4 | CC1(O)CCN(CC(O)c2cc(C#N)cc(Nc3nc(NC4CC4)c4ncc(C#N)n4n3)c2Cl)CC1 (stereo not drawn) [Example 690, 2-((2-chloro-5-cyano-3-(1-hydroxy-2-(4-hydroxy-4-methylpiperidin-1-yl)ethyl)phenyl)amino)-4-(cyclopropylamino)imidazo[2,1-f][1,2,4]triazine-7-carbonitrile]
5.11 | N#Cc1cc(Nc2nc(NC3CC3)c3ncc(C#N)n3n2)c(Cl)c(N2CCN(C3CN(C(=O)C4CCC(O)CC4)C3)CC2)c1 (stereo not drawn) [Example 509, 2-[(2-chloro-5-cyano-3-{4-[1-(4-hydroxycyclohexane-carbonyl)azetidin-3-yl]piperazin-1-yl}phenyl)amino]-4-(cyclopropylamino)imidazo[2,1-f][1,2,4]triazine-7-carbonitrile]
1.8 | COC(=O)Nc1cc(Nc2nc(NC3CC3)c3ncc(C#N)n3n2)c(Cl)c(C2CCN(C)CC2)c1 [Example 397, Methyl-4-chloro-3-(7-cyano-4-(cyclopropylamino)imidazo[1,2-f][1,2,4]triazin-2-ylamino)-5-(1-methylpiperidin-4-yl)phenylcarbamate]
1.23 | CC(=O)N1CC(N2CCN(c3cc(C#N)cc(Nc4nc(NC5CC5)c5ncc(C#N)n5n4)c3F)CC2)C1 [Example 551, 2-((3-(4-(1-acetylazetidin-3-yl)piperazin-1-yl)-5-cyano-2-fluorophenyl)amino)-4-(cyclopropylamino)imidazo[2,1-f][1,2,4]triazine-7-carbonitrile]
0.71 | N#Cc1cc(Nc2nc(NC3CC3)c3ncc(C#N)n3n2)c(Cl)c(N2CCC3(CC2)COC3)c1 [Example 48, 2-((2-chloro-5-cyano-3-(2-oxa-7-azaspiro[3.5]non-7-yl)phenyl)amino)-4-(cyclopropylamino)imidazo [2,1-f][1,2,4]triazine-7-carbonitrile]
5.12 | N#Cc1cc(Nc2nc(NC3CC3)c3ncc(C#N)n3n2)c(OC[C@@H]2COCCN2)cc1F [Example 424, (S)-2-((5-cyano-4-fluoro-2-(morpholin-3-ylmethoxy)phenyl)amino)-4-(cyclopropylamino)imidazo[2,1-f][1,2,4]triazine-7-carbonitrile]
0.55 | N#Cc1cc(Nc2nc(NC3CC3)c3ncc(C#N)n3n2)c(Cl)c(N2CCN(C(=O)C3CC3)CC2)c1 [Example 74, 2-((2-chloro-5-cyano-3-(4-(cyclopropylcarbonyl)-1-piperazinyl)phenyl)amino)-4-(cyclopropylamino) imidazo[2,1-f][1,2,4] triazine-7-carbonitrile]
16.4 | COC(=O)N1CCC2CCN(c3cc(C#N)cc(Nc4nc(NC5CC5)c5ncc(C#N)n5n4)c3Cl)CC21 (racemic) [Example 458, (+/−)-methyl 6-(2-chloro-5-cyano-3-((7-cyano-4-(cyclopropylamino)imidazo[2,1-f][1,2,4]triazin-2-yl)amino)phenyl)octahydro-1H-pyrrolo[2,3-c]pyridine-1-carboxylate]
2.7 | CN1CCN(C(=O)C2CCN(c3cc(C(F)F)cc(Nc4nc(NC5CC5)c5ncc(C#N)n5n4)c3Cl)CC2)CC1 [Example 546, 2-((2-chloro-5-(difluoromethyl)-3-(4-(4-methylpiperazine-1-carbonyl)piperidin-1-yl)phenyl)amino)-4-(cyclopropylamino)imidazo[2,1-f][1,2,4]triazine-7-carbonitrile]
0.49 | N#Cc1cc(CN2CC(O)C2)c(Cl)c(Nc2nc(NC3CC3)c3ncc(C#N)n3n2)c1 [Example 673, 2-((2-chloro-5-cyano-3-((3-hydroxyazetidin-1-yl)methyl)phenyl)amino)-4-(cyclopropylamino)imidazo[2,1-f][1,2,4]triazine-7-carbonitrile]
